From patent publication US12280045B2, “Antitumor agent and antitumor effect potentiator” (TAIHO PHARMACEUTICAL CO., LTD., priority 2017, dated 2025)

Assays:
[1] = Percentage of body weight change in EMT6 breast cancer cell transplant model; assay type: in vivo, mouse; conditions: Compound 1 42 mg/kg p.o. q.d. Day 1-14 / PBS i.p.
Method: (§1) An electronic balance designed for animals was used for body weight measurement. A percentage of body weight change (BWCn) on day n was calculated from the body weight on day 1 (BW1) and the body weight (BWn) on day n using the following formula. Percentage of body weight change BWCn (%)=(BWn−BW1)/BW1×100
An electronic balance designed for animals was used for body weight measurement. A percentage of body weight change (BWCn) on day n was calculated in the same manner as in Example 1.
(§2) A methanesulfonic acid salt of compound 1 was pulverized with an agate mortar, and was prepared into a solution having a concentration of 4.2 mg/mL as its free form, using a solvent. The compound was then dissolved by sonication to prepare a 42 mg/kg dosing solution. The dosing solution was orally administered as compound 1, once daily in a dose of 42 mg/kg/day, continuously for 14 days.
The anti-mouse PD-1 antibody was intraperitoneally administered in a dose of 0.1 mg/body on the first day (Day 1) of administration, and on the 4th day (Day 4), the 8th day (Day 8), and the 11th day (Day 11) since administration was started.
The anti-mouse CTLA-4 antibody was intraperitoneally administered in a dose of 0.5 mg/body on the first day (Day 1) of administration, and after 4 days (Day 4), 8 days (Day 8), and 11 days (Day 11) from administration. […]

[2] = test system: tumor-associated macrophage; assay: Fraction of tumor-associated macrophage in TIL, EMT6 breast cancer cell transplant model (flow cytometry); assay type: in vivo, mouse
Method: EMT6, a mouse breast cancer cell line, was obtained from ATCC. EMT6 was cultured in Waymouth's MB752/1 medium containing 15% FBS. EMT6 was subcultured in a 37° C., 5% CO2 incubator in a 1:3 to 1:5 ratio, one to two times a week.
(§3) A cell suspension as a suspension of EMT6 cells in a 1:1 mixture of PBS and extracellular matrix component Matrigel was prepared, and the suspension, containing 1×10^4 cells/0.1 mL, was transplanted subcutaneously into a BALB/c mouse (Charles River Laboratories Japan Inc.), six weeks of age, in an area around the right last rib.
After 4 days from transplantation, the animals were divided into groups of 5 using a stratified random grouping method, using body weight as an index. The day the grouping was made (N=5) was designated as Day 1.
A methanesulfonic acid salt of compound 1 was pulverized with an agate mortar, and was prepared into a solution having a concentration of 4.2 mg/mL as its free form, using a solvent. […]
The tumor was collected on the 7th day (Day 7) since administration was started, and a tumor suspension was prepared using a digestive enzyme treatment method. […] The isolated TILs were reacted with fluorescence-labeled anti-CD45 antibody, anti-CD90.2 antibody, anti-CD11b antibody, anti-Ly-6G antibody, anti-Ly-6C antibody, and anti-F4/80 antibody, and the fraction of tumor-associated macrophage in TIL was calculated by fluorescence flow cytometry. […]

[3] = test system: tumor-associated macrophage; assay: Fraction of tumor-associated macrophage in TIL, MC38 colon cancer cell transplant model (flow cytometry); assay type: in vivo, mouse
Method: MC38, a mouse colon cancer cell line, was provided by Dr. Yoshihiro Hayakawa (University of Toyama, Toyama, Japan). MC38 was cultured in RPMI 1640 medium containing 10% FBS. MC38 was subcultured in a 37° C., 5% CO2 incubator in a 1:3 to 1:5 ratio, one to two times a week.
A cell suspension of MC38 cells containing 2×10^6 cells/0.1 mL, was transplanted subcutaneously into a C57BL/6NJJcl mouse (CLEA Japan, Inc.), six weeks of age, in an area around the right last rib.
The tumor size was measured by measuring the major axis and minor axis of the tumor with a digimatic caliper, and TV was calculated using the following formula. TV (mm^3)=major axis (mm)×minor axis (mm)×minor axis (mm)/2 […]
The tumor was collected on the 10th day (Day 10) since administration was started, and a tumor suspension was prepared using a digestive enzyme treatment method. […] The isolated TILs were reacted with fluorescence-labeled anti-CD45 antibody, anti-CD90.2 (T cell marker) antibody, anti-CD11b (myeloid leukocyte marker) antibody, anti-Ly-6G (granulocytic bone marrow-derived suppressor cell marker) antibody, anti-Ly-6C (monocytic bone marrow-derived suppressor cell marker) antibody, and anti-F4/80 (macrophage marker) antibody, and the fraction of tumor-associated macrophage in TIL was calculated by fluorescence flow cytometry. […]

[4] = test system: mouse MC38 tumor model; assay: Dose finding of compound 1 in mouse MC38 tumor model; assay type: in vivo; conditions: orally administered once daily for 21 days
Method: An experiment was conducted with mouse MC38 tumor model. Tumor cells were cultured in vitro and transplanted subcutaneously into male mice, six weeks of age, in the right chest region, followed by daily administration of compound 1 and a control antibody. […] This dose (oral continuous administration of 50 mg/kg for 21 days, q.d.) is equivalent to the recommended dose of compound 1 in humans when administered alone.

[5] = Percentage of body weight change in MC38 colon cancer cell transplant model; assay type: in vivo, mouse
Method: as §1
(§4) A methanesulfonic acid salt of compound 1 was pulverized with an agate mortar, and was prepared into a solution having a concentration of 5 mg/mL as its free form, using a solvent. The compound was then dissolved by sonication to prepare a 50 mg/kg dosing solution. The dosing solution was diluted with solvent to prepare a 25 mg/kg dosing solution, and a 12.5 mg/kg dosing solution. These dosing solutions were orally administered as compound 1, once daily in a dose of 12.5 mg/kg/day, 25 mg/kg/day, or 50 mg/kg/day, continuously for 21 days.
(§5) The anti-mouse PD-1 antibody was intraperitoneally administered in a dose of 0.05 mg/body on the first day (Day 1) of administration and on the 8th day since administration was started.
(§6) The medicinal agents shown in Table 1 were administered in the schedules, doses, and dosage forms shown in Table 1 (administered group No. 1 to No. 8).

[6] = test system: mouse colon cancer cell line MC38; assay: Antitumor effect (tumor volume) in MC38 colon cancer cell transplant model; assay type: in vivo; conditions: for TV, DAY 22 MEAN ± S.E.: N=10
Method: MC38, a mouse colon cancer cell line, was provided by Dr. Yoshihiro Hayakawa (University of Toyama, Toyama, Japan). MC38 was cultured in RPMI 1640 medium containing 10% fetal bovine serum (FBS). MC38 was subcultured in a 37° C., 5% CO2 incubator in a 1:3 to 1:5 ratio, one to two times a week.
as §3, with “MC38” for “EMT6”, “phosphate-buffered saline (PBS)” for “PBS”, “1×10^6” for “1×10^4”, “C57BL/6NCrl” for “BALB/c”
(§7) The tumor size was measured by measuring the major axis and minor axis of the tumor with a digimatic caliper, and TV was calculated using the following formula. TV (mm^3)=major axis (mm)×minor axis (mm)×minor axis (mm)/2
The animals were divided into groups of 10 using a stratified random grouping method, using TV as an index. The day the grouping was made (N=10) was designated as Day 1.
as §4, §5, §6
A Dunnett's test (significance level 0.05) was conducted to analyze Day 22 TV for each group.

[7] = test system: mouse breast cancer cell line EMT6; assay: Antitumor effect (tumor volume) in EMT6 breast cancer cell transplant model; assay type: in vivo
Method: EMT6, a mouse breast cancer cell line, was obtained from American Type Culture Collection (ATCC). EMT6 was cultured in Waymouth's MB752/1 medium containing […]. EMT6 was subcultured in a 37° C., 5% CO2 incubator in a 1:3 to 1:5 ratio, one to two times a week.
as §3, §7
The animals were divided into groups of 15 using a stratified random grouping method, using TV as an index. The day the grouping was made (N=15) was designated as Day 1.
as §2, with “days. […]” for “days.”

BWC15 MEAN ± S.E. [1]: 3.2 ± 1.0%
BWC22 MEAN ± S.E. ([5]; Compound 1 12.5 mg/kg p.o. q.d. Day 1-21 / PBS i.p.): 6.1 ± 0.7%
BWC22 MEAN ± S.E. ([5]; Compound 1 25 mg/kg p.o. q.d. Day 1-21 / PBS i.p.): 5.0 ± 0.9%
BWC22 MEAN ± S.E. ([5]; Compound 1 50 mg/kg p.o. q.d. Day 1-21 / PBS i.p.): −0.3 ± 0.9%
Compound: CNC(=O)c1cc2c(Oc3ccc(NC(=S)NC(=O)Cc4ccccc4)cc3F)ccnc2cc1OC [Compound 1, 4-(2-fluoro-4-(3-(2-phenylacetyl)thioureido)phenoxy)-7-methoxy-N-methylquinoline-6-carboxamide]
Fraction of tumor-associated macrophage MEAN ± S.E. ([2]; Compound 1 42 mg/kg p.o. q.d. Day 1-6, tumor collected Day 7, N=5): 20.3 ± 4.8%
fraction of tumor-associated macrophage versus control group (No. 1), result in words ([2]; Dunnett's test, significance level 0.05, doses as in Table 4): significantly smaller fraction of tumor-associated macrophage than control group
Fraction of tumor-associated macrophage MEAN ± S.E. ([3]; Compound 1 25 mg/kg p.o. q.d. Day 1-9, tumor collected Day 10, N=5): 8.2 ± 2.3%
fraction of tumor-associated macrophage versus control group (No. 1), result in words ([3]; Dunnett's test, significance level 0.05, doses as in Table 2): significantly smaller fractions of tumor-associated macrophage than control group
preferred minimum dose that produces the maximum efficacy in the mouse [4]: 50 mg/kg
TV, DAY 22 MEAN ± S.E. ([6]; Compound 1 12.5 mg/kg p.o. q.d. Day 1-21 / PBS i.p. Day 1, 8): 1007 ± 161 mm^3
TV, DAY 22 MEAN ± S.E. ([6]; Compound 1 25 mg/kg p.o. q.d. Day 1-21 / PBS i.p. Day 1, 8): 763 ± 50 mm^3
TV, DAY 22 MEAN ± S.E. ([6]; Compound 1 50 mg/kg p.o. q.d. Day 1-21 / PBS i.p. Day 1, 8): 437 ± 62 mm^3
Day 22 TV versus control group (No. 1), result in words ([6]; Dunnett's test, significance level 0.05, doses as in Table 1): significantly smaller TVs than control group
TV, DAY 15 MEAN ± S.E. ([7]; Compound 1 42 mg/kg p.o. q.d. Day 1-14 / PBS i.p. Day 1, 4, 8, 11, N=15): 312 ± 29 mm^3
Day 15 TV versus control group (No. 1), result in words ([7]; Dunnett's test, significance level 0.05, doses as in Table 3): significantly smaller TVs than control group
